The target in test [1] is T1, Calcitonin gene-related peptide type 1 receptor (Homo sapiens, UniProt O60894+Q16602). The test can be described thus: (§1) Displacement of [125I]CGRP from human recombinant CGRP receptor. On the technique in general: Loss of bound radioactivity is the signal in a displacement assay; it reports binding, not function.
In test [2] the target is T1, Calcitonin gene-related peptide type 1 receptor. Kind of test: Activity at CGRP receptor assessed as inhibition of CGRP-stimulated cAMP production. It is filed as functional. For orientation: cAMP levels reflect the balance of adenylyl cyclase and phosphodiesterase activity.
The target of test [3] is Calcitonin gene-related peptide type 1 receptor (Homo sapiens) (UniProt Q16602). The test is described as §1.

Activity calls are given as the source filed them. No cut-off for these calls is given here. A value given as a limit tells only on which side of the number the result lay.

We go through 51 compounds from ChEMBL document CHEMBL1149493, “Benzodiazepine calcitonin gene-related peptide (CGRP) receptor antagonists: optimization of the 4-substituted piperidine” (Bioorg Med Chem Lett, 2006).

T1 sequence (Q16602 whole entry, one chain of several): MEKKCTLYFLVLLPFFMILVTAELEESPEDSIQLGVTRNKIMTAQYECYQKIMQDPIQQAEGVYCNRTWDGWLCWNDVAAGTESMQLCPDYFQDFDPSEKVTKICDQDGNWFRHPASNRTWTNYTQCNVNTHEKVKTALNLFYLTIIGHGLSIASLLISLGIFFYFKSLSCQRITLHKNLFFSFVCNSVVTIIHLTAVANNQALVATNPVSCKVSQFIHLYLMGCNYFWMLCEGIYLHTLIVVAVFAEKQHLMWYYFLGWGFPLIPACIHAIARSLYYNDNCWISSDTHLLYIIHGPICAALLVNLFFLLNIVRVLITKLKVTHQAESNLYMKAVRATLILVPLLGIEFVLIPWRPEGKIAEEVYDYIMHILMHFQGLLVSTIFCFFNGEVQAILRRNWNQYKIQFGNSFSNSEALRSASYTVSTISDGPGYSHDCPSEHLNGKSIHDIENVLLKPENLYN
Calcitonin gene-related peptide type 1 receptor (Homo sapiens), sequence (Q16602 whole entry): as the sequence (Q16602 whole entry, one chain of several) above

In general, Ki refers to the dissociation constant of the complex between target and ligand, obtained from inhibition or displacement. As usually defined, the IC50 is the concentration that inhibits the measured activity by half. `O=C(N[C@@H]1N=C(c2ccccc2)c2ccccc2N(CC(F)(F)F)C1=O)N1CCC(n2cc(Cc3ccccc3)[nH]c2=O)CC1`: the Ki in test [1] was 1130 nM. Besides, the IC50 in test [2] is 450 nM.

Turning to `O=C(N[C@@H]1N=C(c2ccccc2)c2ccccc2N(CC(F)(F)F)C1=O)N1CCC(N2Cc3cccnc3NC2=O)CC1`, the Ki in test [1] is 295 nM. In test [2], the IC50 turned out to be 616 nM.

For `O=C(N[C@@H]1N=C(c2ccccc2)c2ccccc2N(CC(F)(F)F)C1=O)N1CCC(n2cc(-c3ccc(OC(F)(F)F)cc3)[nH]c2=O)CC1`, in test [1], the Ki came to 104 nM. For the same compound, the IC50 in test [2] came out at 431 nM.

Take `O=C(N[C@@H]1N=C(c2ccccc2)c2ccccc2N(CC(F)(F)F)C1=O)N1CCC(N2CC(c3cccnc3)NC2=O)CC1` (stereo partly specified): in test [1], the Ki is 1050 nM.

Regarding `O=C(N[C@@H]1N=C(c2ccccc2)c2ccccc2N(CC(F)(F)F)C1=O)N1CCC(N2Cc3ccncc3NC2=O)CC1`, the Ki in test [1] was found to be 350 nM. Also, the IC50 in test [2] is 224 nM.

Take `O=C(N[C@@H]1N=C(c2ccccc2)c2ccccc2N(CC(F)(F)F)C1=O)N1CCC(n2cc[nH]c2=O)CC1`: the Ki in test [1] came to 583 nM. The IC50 in test [2] was 672 nM.

As to `O=C(N[C@@H]1N=C(c2ccccc2)c2ccccc2N(CC(F)(F)F)C1=O)N1CCC(N2Cc3ncccc3NC2=O)CC1`, the Ki in test [1] worked out at 965 nM. The IC50 in test [2] was 1840 nM.

As for `O=C1CN(C2CCN(C(=O)N[C@@H]3N=C(c4ccccc4)c4ccccc4N(CC(F)(F)F)C3=O)CC2)C(=O)N1`, in test [1], the Ki was found to be 29 nM. Further, the IC50 in test [2] was determined as 100 nM.

Regarding `O=C(N[C@@H]1N=C(c2ccccc2)c2ccccc2N(CC(F)(F)F)C1=O)N1CCC(n2c(=O)[nH]c3ncccc32)CC1`, the Ki in test [1] is 23 nM. The IC50 in test [2] turned out to be 49 nM.

Take `O=C(N[C@@H]1N=C(c2ccccc2)c2ccccc2N(CC(F)(F)F)C1=O)N1CCC(n2c(=O)[nH]c3ncncc32)CC1`: the Ki in test [1] is 51 nM. Besides, the IC50 in test [2] came out at 430 nM.

`COc1cccc(-c2cn(C3CCN(C(=O)N[C@@H]4N=C(c5ccccc5)c5ccccc5N(CC(F)(F)F)C4=O)CC3)c(O)n2)c1`: the Ki in test [1] was 1.1 nM. The IC50 in test [2] stood at 5.1 nM.

As for `O=C(N[C@@H]1N=C(c2ccccc2)c2ccccc2N(CC(F)(F)F)C1=O)N1CCC(n2cc(-c3ccccn3)[nH]c2=O)CC1`, in test [1], the Ki was 27 nM. In test [2], the IC50 stood at 37 nM.

As for `CS(=O)(=O)c1ccc2c(c1)[nH]c(=O)n2C1CCN(C(=O)N[C@@H]2N=C(c3ccccc3)c3ccccc3N(CC(F)(F)F)C2=O)CC1`, in test [1], the Ki was 260 nM. Further, the IC50 in test [2] came out at 220 nM.

Take `O=C(N[C@@H]1N=C(c2ccccc2)c2ccccc2N(CC(F)(F)F)C1=O)N1CCC(n2c(O)nc3c2ccc[n+]3[O-])CC1`: the Ki in test [1] is 1000 nM.

`O=C(N[C@@H]1N=C(c2ccccc2)c2ccccc2N(CC(F)(F)F)C1=O)N1CCC(n2c(=O)[nH]c3cccnc32)CC1`: the Ki in test [1] was found to be 427 nM. In test [2], the IC50 amounted to 1140 nM.

`O=C(N[C@@H]1N=C(c2ccccc2)c2ccccc2N(CC(F)(F)F)C1=O)N1CCC(n2c(=O)[nH]c3ccncc32)CC1`: the Ki in test [1] is 853 nM. Besides, the IC50 in test [2] was 1400 nM.

For the compound `O=C(N[C@@H]1N=C(c2ccccc2)c2ccccc2N(CC(F)(F)F)C1=O)N1CCC(N2Cc3ccccc3NC2=O)CC1`, in test [1], the Ki stood at 48 nM. Further, the concentration for half-maximal inhibition (IC50) in test [2] was 34 nM.

Regarding `O=C(N[C@@H]1N=C(c2ccccc2)c2ccccc2N(CC(F)(F)F)C1=O)N1CCC(n2c(O)nc3c(Cl)cccc32)CC1`, the Ki in test [1] turned out to be 143 nM. The IC50 in test [2] is 446 nM.

In the case of `O=C(N[C@@H]1N=C(c2ccccc2)c2ccccc2N(CC(F)(F)F)C1=O)N1CCC(n2c(O)nc3cccc(Cl)c32)CC1`, the Ki in test [1] stood at 6400 nM.

Turning to `COC(=O)c1cn(C2CCN(C(=O)N[C@@H]3N=C(c4ccccc4)c4ccccc4N(CC(F)(F)F)C3=O)CC2)c(=O)[nH]1`, in test [1], the Ki is 110 nM. The IC50 in test [2] is 156 nM.

Take `O=C(N[C@@H]1N=C(c2ccccc2)c2ccccc2N(CC(F)(F)F)C1=O)N1CCC(n2c(=O)[nH]c3c4ccccc4ccc32)CC1`: in test [1], the Ki came out at 27 nM. Moreover, the IC50 in test [2] was 369 nM.

`O=C(N[C@@H]1N=C(c2ccccc2)c2ccccc2N(CC(F)(F)F)C1=O)N1CCC(n2c(O)nc3cc(C(F)(F)F)ccc32)CC1`: in test [1], the Ki stood at 3800 nM.

With `O=C(N[C@@H]1N=C(c2ccccc2)c2ccccc2N(CC(F)(F)F)C1=O)N1CCC(n2cc(CO)[nH]c2=O)CC1`, the Ki in test [1] came out at 20000 nM.

For `O=C(N[C@@H]1N=C(c2ccccc2)c2ccccc2N(CC(F)(F)F)C1=O)N1CCC(n2c(=O)[nH]c3ccc(F)cc32)CC1`, the Ki in test [1] is 983 nM. Besides, in test [2], the IC50 came to 1400 nM.

In the case of `O=C(N[C@@H]1N=C(c2ccccc2)c2ccccc2N(CC(F)(F)F)C1=O)N1CCC(n2nc(-c3ccccc3)[nH]c2=O)CC1`, the Ki in test [1] came out at 26 nM. In addition, in test [2], the IC50 was found to be 100 nM.

For `O=C(N[C@@H]1N=C(c2ccccc2)c2ccccc2N(CC(F)(F)F)C1=O)N1CCC(N2CC(c3ccncc3)NC2=O)CC1` (stereo partly specified), in test [1], the Ki was found to be 720 nM. The IC50 in test [2] was determined as 804 nM.

Take `O=C(N[C@@H]1N=C(c2ccccc2)c2ccccc2N(CC(F)(F)F)C1=O)N1CCC(n2cc(-c3ccccc3)[nH]c2=O)CC1`: the Ki in test [1] worked out at 11 nM. Also, the IC50 in test [2] came to 14 nM.

As for `NC(=O)c1ccc2c(c1)[nH]c(=O)n2C1CCN(C(=O)N[C@@H]2N=C(c3ccccc3)c3ccccc3N(CC(F)(F)F)C2=O)CC1`, the Ki in test [1] came to 1050 nM.

Regarding `O=C(N[C@@H]1N=C(c2ccccc2)c2ccccc2N(CC(F)(F)F)C1=O)N1CCC(N2CC(c3ccccn3)NC2=O)CC1` (stereo partly specified), the Ki in test [1] turned out to be 2000 nM.

For `Cc1cccc2nc(O)n(C3CCN(C(=O)N[C@@H]4N=C(c5ccccc5)c5ccccc5N(CC(F)(F)F)C4=O)CC3)c12`, the Ki in test [1] was found to be 20000 nM.

As to `CC(C)c1cn(C2CCN(C(=O)N[C@@H]3N=C(c4ccccc4)c4ccccc4N(CC(F)(F)F)C3=O)CC2)c(=O)[nH]1`, in test [1], the Ki came to 5340 nM.

Take `Cc1ccc2c(c1)[nH]c(=O)n2C1CCN(C(=O)N[C@@H]2N=C(c3ccccc3)c3ccccc3N(CC(F)(F)F)C2=O)CC1`: the Ki in test [1] is 6100 nM.

As to `O=C(N[C@@H]1N=C(c2ccccc2)c2ccccc2N(CC(F)(F)F)C1=O)N1CCC(n2c(=O)[nH]c3cnccc32)CC1`, in test [1], the Ki was 685 nM. Also, in test [2], the IC50 was 1380 nM.

As to `O=C(N[C@@H]1N=C(c2ccccc2)c2ccccc2N(CC(F)(F)F)C1=O)N1CCC(n2cc(-c3ccc(OC(F)F)cc3)nc2O)CC1`, the Ki in test [1] came out at 19 nM. Also, the IC50 in test [2] came to 74 nM.

In the case of `Cc1cccc2c1nc(O)n2C1CCN(C(=O)N[C@@H]2N=C(c3ccccc3)c3ccccc3N(CC(F)(F)F)C2=O)CC1`, in test [1], the Ki amounted to 6900 nM.

On to `COc1ccc(-c2cn(C3CCN(C(=O)N[C@@H]4N=C(c5ccccc5)c5ccccc5N(CC(F)(F)F)C4=O)CC3)c(=O)[nH]2)cc1`, for which, in test [1], the Ki turned out to be 205 nM. Moreover, in test [2], the IC50 worked out at 193 nM.

For `N#Cc1cn(C2CCN(C(=O)N[C@@H]3N=C(c4ccccc4)c4ccccc4N(CC(F)(F)F)C3=O)CC2)c(=O)[nH]1`, the Ki in test [1] amounted to 575 nM. Further, the IC50 in test [2] stood at 990 nM.

For the compound `O=C(N[C@@H]1N=C(c2ccccc2)c2ccccc2N(CC(F)(F)F)C1=O)N1CCC(n2c(O)nc3cc(Cl)ccc32)CC1`, the Ki in test [1] is over 10000 nM.

In the case of `O=C(O)c1ccc2c(c1)[nH]c(=O)n2C1CCN(C(=O)N[C@@H]2N=C(c3ccccc3)c3ccccc3N(CC(F)(F)F)C2=O)CC1`, in test [1], the Ki came to 810 nM. Also, the IC50 in test [2] is 715 nM.

Take `O=C(N[C@@H]1N=C(c2ccccc2)c2ccccc2N(CC(F)(F)F)C1=O)N1CCC(n2c(O)nc3c(F)cccc32)CC1`: the Ki in test [1] worked out at 375 nM. For the same compound, in test [2], the IC50 was determined as 373 nM.

`O=C(N[C@@H]1N=C(c2ccccc2)c2ccccc2N(CC(F)(F)F)C1=O)N1CCC(n2c(O)nc3cc(F)ccc32)CC1`: in test [1], the Ki is 2800 nM.

With `O=C(N[C@@H]1N=C(c2ccccc2)c2ccccc2N(CC(F)(F)F)C1=O)N1CCC(n2c(=O)[nH]c3ccccc32)CC1`, the Ki in test [1] stood at 2250 nM.

Turning to `O=C(O)c1cn(C2CCN(C(=O)N[C@@H]3N=C(c4ccccc4)c4ccccc4N(CC(F)(F)F)C3=O)CC2)c(=O)[nH]1`, the inhibitory constant (Ki) in test [1] was 2900 nM.

Regarding `O=C(N[C@@H]1N=C(c2ccccc2)c2ccccc2N(CC(F)(F)F)C1=O)N1CCC(N2Cc3cnccc3NC2=O)CC1`, the Ki in test [1] stood at 320 nM. Moreover, in test [2], the IC50 stood at 627 nM.

`O=C(N[C@@H]1N=C(c2ccccc2)c2ccccc2N(CC(F)(F)F)C1=O)N1CCC(N2C(=O)NCc3ccccc32)CC1`: the outcome in test [3] was inactive.

Consider `Cc1ccc(-c2cn(C3CCN(C(=O)N[C@@H]4N=C(c5ccccc5)c5ccccc5N(CC(F)(F)F)C4=O)CC3)c(=O)[nH]2)cc1`, for which the Ki in test [1] was determined as 6.3 nM. In addition, the IC50 in test [2] is 85 nM.

Regarding `O=C(N[C@@H]1N=C(c2ccccc2)c2ccccc2N(CC(F)(F)F)C1=O)N1CCC(N2CCNC2=O)CC1`, the Ki in test [1] came out at 855 nM. In addition, the IC50 in test [2] is 3100 nM.

For the compound `O=C(N[C@@H]1N=C(c2ccccc2)c2ccccc2N(CC(F)(F)F)C1=O)N1CCC(N2CC(c3ccccc3)NC2=O)CC1` (stereo partly specified), the Ki in test [1] is 339 nM. The IC50 in test [2] worked out at 790 nM.

Regarding `O=C(N[C@@H]1N=C(c2ccccc2)c2ccccc2N(CC(F)(F)F)C1=O)N1CCC(n2cc(-c3ccc(F)cc3)[nH]c2=O)CC1`, the Ki in test [1] was determined as 11 nM. Further, in test [2], the IC50 stood at 107 nM.

Consider `O=C(N[C@@H]1N=C(c2ccccc2)c2ccccc2N(CC(F)(F)F)C1=O)N1CCC(n2cc(-c3cccc(F)c3)nc2O)CC1`, for which the Ki in test [1] came out at 11 nM. The IC50 in test [2] came out at 46 nM.

On to `O=C(N[C@@H]1N=C(c2ccccc2)c2ccccc2N(CC(F)(F)F)C1=O)N1CCC(n2c(=O)[nH]c3nccnc32)CC1`, for which the Ki in test [1] came out at 156 nM. Moreover, the IC50 in test [2] was found to be 286 nM.
